Experimental data from US20220072162A1, “MAGNETIC RESONANCE IMAGING DRUG CONTAINING A DEUTERATED NATURAL BRANCHED-CHAIN AMINO ACID, AND DIAGNOSTIC METHOD USING SAID DRUG” (LIMITED LIABILITY COMPANY "SOLVEX" ("SOLVEX" LLC), priority 2018, published 2022).
One block for each molecule: values may come before it.

Columns and labels:
[1] = in vivo; cited from earlier work
[2] = Excerpt: This exchange lowers the concentration of the deuterium label, while simultaneously increasing the background signal of heavy water (DOH), which is evenly distributed throughout the body due to rapid diffusion. This process leads to a decrease in the contrast of the image, and also prevents quantitive evaluation of deuterated component concentration by comparison with the intensity of natural DOH signal.
[3] = in vivo; cited from earlier work; remark: listed apart in the source
[4] = Content of valine-d6 in tissues of mice with 4T1 breast carcinoma, 2H NMR of tissue extracts (Example 5); assay type: in vivo, Balb/c mice; details: for [valine-d6], 30 min.: 30 min after 20 mg i.p. to 20 g mouse; for [valine-d6], 1 hour: 1 hour after 20 mg i.p. to 20 g mouse
Procedure: After administration, the animal was kept in a separate cage with access to food and water. After a certain time after administration, the animal was devitalized by dislocation of the cervical vertebrae. Samples of animal organs and tissues were quickly removed and frozen in liquid nitrogen. Frozen samples were ground in a porcelain mortar while cooling with liquid nitrogen. A weighed portion (50-200 mg) of the obtained powder was quickly introduced into 0.4% hydrochloric acid (0.6-1.0 ml) heated to 98° C. The resulting suspension was kept at 98° C. for 15 min with occasional shaking. After adding an internal standard (3-O—(CD3)-glucose solution), the mixture was shaken and centrifuged until the solid fractions were completely separated. The solution was analyzed by ^2H NMR.

[5] = Accumulation of freely diffusing deuterated compounds in organs and tissues; assay type: in vivo; details: authors' experiments and prior art
[6] = tested on: 4T1 breast carcinoma; test: Deuterium tomography (2H MRI) to visualize mouse 4T1 breast carcinoma in vivo (Examples 2, 4); details: for accumulation in tumor tissue (2H tomograms): i.p. to 20 g mouse: 20 mg valine-d6, 30 mg L-alanine-d3, 10 mg L-phenylalanine-d7; for accumulation selectivity in various organs (2H tomograms): i.p. to 20 g mouse: 30 mg L-alanine-d3, 10 mg L-phenylalanine-d7
[7] = Solubility in water for injection; assay type: physicochemical; details: 10 mg in 1.0 ml of water was the dose given
[8] = in vivo; cited from earlier work; remark: listed apart in the source
[9] = Distribution and metabolism of deuterated valine mixture in tissues, isotopomer ratio by LC-MS/MS (Example 6); assay type: in vivo, Balb/c mice; details: 60 minutes after 20 mg i.p., 49% in initial drug
Procedure: In this example, L-valine-d6/d7, partially deuterated at the α position and positions 4, 4′, was used. (S-valine-d6/d7). The total molar fraction of α-deuterated forms of valine in the initial diagnostic drug is 49%.
After administration, the animal was kept in a separate cage with access to food and water. After 60 minutes after administration, the animal was devitalized by dislocation of the cervical vertebrae. Samples of animal organs and tissues were quickly removed and frozen in liquid nitrogen. Frozen samples were ground in a porcelain mortar while cooling with liquid nitrogen. A weighed portion (about 50 mg) of the obtained powder was quickly introduced into 0.4% hydrochloric acid (1.0 ml) heated to 98° C. The resulting suspension was kept at 98° C. for 15 min with occasional shaking, then centrifuged. The solution was diluted with 3 volumes of acetonitrile, centrifuged after 15 minutes, diluted with 9 volumes of water, and centrifuged again. The ratio of isotopomers d5, d6, and d7 of valine was determined by LC-MS/MS.

[10] = rat, in vivo, 0.021 mg/kg; cited from earlier work

accumulation in tumor tissue compared to kidneys, heart, brain, skeletal muscles and adipose tissue ([4]; 1 hour after the injection): increased accumulation
[valine-d6], 30 min. ([4]; Brain): 1.6 µmol/g
[valine-d6], 1 hour ([4]; Brain): 2.6 µmol/g
[valine-d6], 30 min. ([4]; Fat tissue): 4.0 µmol/g
[valine-d6], 1 hour ([4]; Fat tissue): 1.7 µmol/g
[valine-d6], 30 min. ([4]; Heart): 7.5 µmol/g
[valine-d6], 1 hour ([4]; Heart): 8.0 µmol/g
[valine-d6], 30 min. ([4]; Kidneys): 9.3 µmol/g
[valine-d6], 1 hour ([4]; Kidneys): 7.5 µmol/g
[valine-d6], 30 min. ([4]; Liver): 17.9 µmol/g
[valine-d6], 1 hour ([4]; Liver): 11.5 µmol/g
[valine-d6], 30 min. ([4]; Lungs): 10.6 µmol/g
[valine-d6], 1 hour ([4]; Lungs): 8.8 µmol/g
[valine-d6], 30 min. ([4]; Sceletal muscles): 7.4 µmol/g
[valine-d6], 1 hour ([4]; Sceletal muscles): 7.7 µmol/g
[valine-d6], 30 min. ([4]; Spleen): 14.7 µmol/g
[valine-d6], 1 hour ([4]; Spleen): 14.1 µmol/g
Tumor:tissue ratio, 30 min. ([4]; Tumor:Brain): 5.8
Tumor:tissue ratio, 1 hour ([4]; Tumor:Brain): 3.8
Tumor:tissue ratio, 30 min. ([4]; Tumor:Fat tissue): 2.3
Tumor:tissue ratio, 1 hour ([4]; Tumor:Fat tissue): 5.8
Tumor:tissue ratio, 30 min. ([4]; Tumor:Heart): 1.2
Tumor:tissue ratio, 1 hour ([4]; Tumor:Heart): 1.2
Tumor:tissue ratio, 30 min. ([4]; Tumor:Kidneys): 0.99
Tumor:tissue ratio, 1 hour ([4]; Tumor:Kidneys): 1.3
Tumor:tissue ratio, 30 min. ([4]; Tumor:Liver): 0.51
Tumor:tissue ratio, 1 hour ([4]; Tumor:Liver): 0.85
Tumor:tissue ratio, 30 min. ([4]; Tumor:Lungs): 0.87
Tumor:tissue ratio, 1 hour ([4]; Tumor:Lungs): 1.1
Tumor:tissue ratio, 30 min. ([4]; Tumor:Sceletal muscles): 1.2
Tumor:tissue ratio, 1 hour ([4]; Tumor:Sceletal muscles): 1.3
Tumor:tissue ratio, 30 min. ([4]; Tumor:Spleen): 0.63
Tumor:tissue ratio, 1 hour ([4]; Tumor:Spleen): 0.70
[valine-d6], 30 min. ([4]; Tumor): 9.2 µmol/g
[valine-d6], 1 hour ([4]; Tumor): 9.8 µmol/g
excess over the physiological concentration of free valine in animal tissues ([4]; physiological free valine about 0.5 μmol/g): more than 10 fold
Molecule: [2H]C([2H])([2H])C([C@H](N)C(=O)O)C([2H])([2H])[2H] [valine-d6, Valine-4,4,4,4′, 4′, 4′-D6]

accumulation in tumor tissue (2H tomograms) [6]: do not accumulate in tumor tissue
solubility [7]: low solubility
Molecule: [2H]c1c([2H])c([2H])c(C([2H])([2H])[C@H](N)C(=O)O)c([2H])c1[2H] [L-phenylalanine-β,β,2,3,4,5,6-d7]
accumulation selectivity in various organs (2H tomograms) [6]: do not show accumulation selectivity in various organs

total mole fraction of α-deuterated valine ([9]; adipose tissue): 11%
total mole fraction of α-deuterated valine ([9]; blood): 12%
total mole fraction of α-deuterated valine ([9]; brain): 5%
total mole fraction of α-deuterated valine ([9]; kidneys): 17%
total mole fraction of α-deuterated valine ([9]; liver): 11%
total mole fraction of α-deuterated valine ([9]; skeletal muscles): 11%
total mole fraction of α-deuterated valine ([9]; spleen): 13%
total mole fraction of α-deuterated valine ([9]; tumor): 12%
Molecule: Valine-2,4,4,4,4 “, 4”, 4′-D7 (mixed with valine-4,4,4,4 “, 4”, 4′-D6) [L-valine-d6/d7]

Continued, molecule first:

Molecule: [2H]O [DOH]
non-toxic replacement of water in the body [1]: 10-30%

Molecule: [2H]C([2H])(N)C(=O)O [glycine-2,2-d2]
loss of deuterium in vivo [2]: lose deuterium in vivo very quickly

Molecule: CC(C)C(N)[14C](=O)O (stereo not shown) [^14C-valine]
time within which most of the label accumulated in liver and pancreas is included in protein [3]: ≤ 10 min

Molecule: [2H]O[2H] [D2O]
selective accumulation in various organs and tissues [5]: do not show selective accumulation

Molecule: CC(C)[C@H](N)[11C](=O)O [1-^11C-valine]
organ of main accumulation [8]: accumulate mainly in the pancreas

Molecule: [2H]C([2H])([2H])[C@H](N)C(=O)O [L-alanine-3,3,3-d3]
accumulation in tumor tissue (2H tomograms) [6]: do not accumulate in tumor tissue
accumulation selectivity in various organs (2H tomograms) [6]: do not show accumulation selectivity in various organs
loss of deuterium in vivo [2]: lose deuterium in vivo very quickly

Molecule: CC(C)C(N)[14C](=O)O (racemic) [DL-1-^14C-valine]
increase of absolute concentration of valine in liver and kidneys over physiological [10]: no more than 0.3 nmol/g
elimination of isotopic label in the form of CO2 [8]: 28%
organ of main accumulation [8]: accumulate mainly in the pancreas
